Results reported in ChEMBL document CHEMBL1146695 (Bioorg Med Chem Lett, 2004).

Assays:
Carbonic anhydrase 4 = biological target: T1, Carbonic anhydrase 4 (Bos taurus, UniProt Q95323)
T1 sequence (Q95323 whole entry): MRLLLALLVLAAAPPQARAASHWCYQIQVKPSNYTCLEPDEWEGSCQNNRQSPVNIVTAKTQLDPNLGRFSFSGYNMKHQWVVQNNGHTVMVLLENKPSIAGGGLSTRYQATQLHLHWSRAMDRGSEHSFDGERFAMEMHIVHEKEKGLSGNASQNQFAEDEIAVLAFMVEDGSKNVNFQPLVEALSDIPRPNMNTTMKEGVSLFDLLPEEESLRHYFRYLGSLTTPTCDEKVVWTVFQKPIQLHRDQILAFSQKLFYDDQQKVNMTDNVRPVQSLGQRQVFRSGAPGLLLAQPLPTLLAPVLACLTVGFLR
Description: Compound was evaluated for inhibition against bovine carbonic anhydrase IV

Carbonic anhydrase 9 = Carbonic anhydrase 9 (Homo sapiens, UniProt Q16790)
Description: Compound was evaluated for inhibition against human carbonic anhydrase IX

Carbonic anhydrase 1 = Carbonic anhydrase 1 (Homo sapiens, UniProt P00915)
Description: Compound was evaluated for inhibition against human carbonic anhydrase I

Carbonic anhydrase 2 = Carbonic anhydrase 2 (Homo sapiens, UniProt P00918)
Description: Compound was evaluated for inhibition against human carbonic anhydrase II

Chain of Carbonic anhydrase 1 (P00915 whole entry): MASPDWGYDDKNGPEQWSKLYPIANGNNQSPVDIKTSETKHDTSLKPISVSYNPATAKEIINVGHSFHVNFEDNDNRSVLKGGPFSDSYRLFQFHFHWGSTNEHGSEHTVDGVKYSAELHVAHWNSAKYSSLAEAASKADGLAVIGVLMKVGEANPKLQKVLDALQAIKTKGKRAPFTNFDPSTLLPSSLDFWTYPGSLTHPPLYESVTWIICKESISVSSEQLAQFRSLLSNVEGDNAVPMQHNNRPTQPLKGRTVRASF

NS(=O)(=O)c1ccc(S(=O)(=O)Nc2cccc3[nH]cc(Cl)c23)cc1
Ki (Carbonic anhydrase 4): 0.065 µM
Ki (Carbonic anhydrase 9): 0.024 µM
Ki (Carbonic anhydrase 1): 0.031 µM
Ki (Carbonic anhydrase 2): 0.015 µM
